Assay results taken from paper PMC7738880, “Identification of novel CD44v6-binding peptides that block CD44v6 and deliver a pro-apoptotic peptide to tumors to inhibit tumor growth and metastasis in mice” (Theranostics, 2021).
Residues, ends and D or L forms follow the SMILES beside them.

How the values were obtained:
[1] = tested on: c-Met and Erk phosphorylation in MDA-MB231 cells; assay: Western blotting of HGF-induced c-Met and Erk phosphorylation, MDA-MB231; type: cell-based, human; conditions: peptide 20 µM 10 min, HGF 25 ng/mL 10 min
Protocol: To examine c-Met and Erk phosphorylation, MDA-MB231 cells were serum-starved for 24 h, pre-treated with CD44v6-binding peptides (20 µM) for 10 min, and incubated with 25 ng/mL HGF for 10 min. After the incubation, the cell lysates were subjected to Western blotting analyses using an anti-phospho-Met rabbit monoclonal antibody (clone no. D26; Cell Signaling Technology), anti-Met mouse monoclonal antibody (clone no. 25H2, 1:1000 dilution; Cell Signaling Technology), anti-phospho-Erk1/2 rabbit monoclonal antibody (clone no. 197G2; Cell Signaling Technology), and anti-ERK1 rabbit polyclonal antibody (1:1000 dilution; Santa Cruz Biotechnology). The labeled bands on immunoblots were detected using enhanced chemiluminescence reagents (ThermoFisher Scientific).

4T1 cells = assay: Transwell cell migration and invasion assays, 4T1; type: cell-based, mouse; conditions: HGF 25 ng/mL, 24 h
Protocol: Transwell chambers (24-wells) with 8 μm pores were obtained from Corning (Corning, NY). MDA-MB231 and 4T1 cells (1 × 10^6 cells) were harvested, resuspended in 200 μL of DMEM containing CD44v6-binding peptides (20 µM), and then seeded into the upper chamber of the transwell chambers. The lower chamber was filled with 600 μL of DMEM containing 25 ng/mL HGF. After 24 h of incubation, cells that migrated into the reverse side of the transwell membrane were fixed with methanol, stained with crystal violet, and then counted under a light microscope. An average of five visual fields was obtained. For invasion assays, the transwell membrane was pre-coated with 300 µg/mL of Matrigel (Corning). […]
phosphorylation in 4T1 cells. (C-D) Transwell migration (C) and invasion (D) assays of 4T1 cells pre-treated or not with 5 μg/mL NLN and NEW for 10 min and subsequently treated with 25 ng/mL HGF for 10 min, followed by incubation for 24 h. Scale bars = 20 μm. Graphs (right panels) represent the quantification of the cell numbers in ten randomly selected fields. Data are shown as the means ± S.E. of three independent experiment. **, P < 0.01; ***, P < 0.001; n.s, not significant compared with HGF by one-way ANOVA.

[2] = molecular target: T1, recombinant human CD44v6-Fc protein (Homo sapiens, UniProt P16070); assay: SPR analysis of peptide binding affinity to CD44v6-Fc; conditions: biotin-conjugated peptide on streptavidin chip, CD44v6-Fc 0.125-2 µM, steady-state 1:1 fit, pH 7.4
T1 sequence (P16070 386-428 limits assumed): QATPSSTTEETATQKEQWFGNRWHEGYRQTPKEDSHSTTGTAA
Protocol: The binding affinity (KD) of CD44v6-binding peptides to the CD44v6 protein was measured using an SPR instrument (Reichert Technologies, Depew, NY). A streptavidin chip was used as the immobilization substrate and exposed to biotin-labeled peptides (25 μΜ) at 5 μL/min for 50 min. The streptavidin only surface was used for the reference surface. All SPR signals were corrected by subtraction with the response of the reference surface. After washing, the chip was flowed with a solution of CD44v6-Fc or CD44-Fc protein (R&D Systems, Minneapolis, MN) in binding buffer (137 mM NaCl, 10 mM phosphate, 2.7 mM KCl pH 7.4, 62.5 µM BSA, and 0.005% Tween-20) at concentrations of 0.125, 0.25, 0.5, 1, and 2 μM at 10 μL/min for 3 min. Five concentrations (0.125, 0.25, 0.5, 1, and 2 µM) of CD44v6-Fc and CD44-Fc were used in a single-cycle dynamic SPR measurements. Resonance units were recorded and analyzed using Scrubber 2.0 software (BioLogic Software, Campbell, Australia). KD values were calculated by analyzing the steady-state binding data by fitting the curve of binding level against concentration with a 1:1 binding model (GraphPad Prism 7.0 software).

MDA-MB231 cells = assay: Transwell cell migration and invasion assays, MDA-MB231; type: cell-based, human; conditions: peptide 20 µM, HGF 25 ng/mL, 24 h
Protocol: Transwell chambers (24-wells) with 8 μm pores were obtained from Corning (Corning, NY). MDA-MB231 and 4T1 cells (1 × 10^6 cells) were harvested, resuspended in 200 μL of DMEM containing CD44v6-binding peptides (20 µM), and then seeded into the upper chamber of the transwell chambers. The lower chamber was filled with 600 μL of DMEM containing 25 ng/mL HGF. After 24 h of incubation, cells that migrated into the reverse side of the transwell membrane were fixed with methanol, stained with crystal violet, and then counted under a light microscope. An average of five visual fields was obtained. For invasion assays, the transwell membrane was pre-coated with 300 µg/mL of Matrigel (Corning).

Panc-1 cells = assay: Saturation cell binding assay, Panc-1; design: species or system human; conditions: biotin-labeled peptide 0-256 µM, 4 °C, 1 h
Protocol: Supplementary Information
Supplementary Materials and Methods
Saturation binding assays to determine the cellular binding affinities of peptides Cells (5 × 10^3 cells per well in a 96-well plate) were incubated with 1% bovine serum albumin (BSA) for 30 min and with different concentrations of biotin-labeled peptides (0, 2, 4, 8, 16, 32, 64, 128, and 256 µM) at 4 °C for 1 h. After washing, the cells were incubated with horseradish peroxidase-conjugated neutravidin (1:10,000 dilution; ThermoFisher Scientific, Waltham, MA) for 30 min at room temperature. Enzymatic activity was detected using a 3,3ʹ,5,5ʹ-tetramethylbenzidine substrate (ThermoFisher Scientific), and the reaction was stopped using 2 M sulfuric acid. The absorbance at 450 nm was measured in each well using a microplate reader (Tecan, Mannedorf, Switzerland). The KD values were then calculated using GraphPad Prism 6 software (GraphPad Inc., La Jolla, CA). […]
10 µM biotin-labeled CD44v6-binding peptides at 4 °C for 1 h. […]
Scientific) for 30 min at room temperature. […]

| SMILES | HGF-induced phosphorylation of c-Met and Erk, MDA-MB231 [1] | HGF-induced cell migration and invasion, 4T1 (4T1 cells) | Kd [2] [µM] | HGF-induced cell migration and invasion, MDA-MB231 (MDA-MB231 cells) | Kd (Panc-1 cells) [µM] |
| --- | --- | --- | --- | --- | --- |
| CC(C)C[C@H](NC(=O)[C@H](CCC(N)=O)NC(=O)[C@H](Cc1c[nH]c2ccccc12)NC(=O)[C@H](CCC(=O)O)NC(=O)[C@H](CC(N)=O)NC(=O)[C@@H](N)CS)C(=O)N[C@@H](CCCCN)C(=O)N[C@@H](CO)C(=O)N[C@@H](CS)C(=O)O [NEW] (H-CNEWQLKSC-OH; N-terminus and C-terminus assumed) | inhibited | inhibited | 0.085 ± 0.018 | inhibited | 7 ± 3 |
| CC[C@H](C)[C@H](NC(=O)[C@@H](NC(=O)[C@H](CC(N)=O)NC(=O)[C@H](CC(C)C)NC(=O)[C@H](CC(N)=O)NC(=O)[C@@H](N)CS)[C@@H](C)O)C(=O)N[C@@H](CC(=O)O)C(=O)N[C@H](C(=O)N[C@@H](CS)C(=O)O)[C@@H](C)O [NLN] (H-CNLNTIDTC-OH; N-terminus and C-terminus assumed) | inhibited | inhibited | 0.253 ± 0.079 | inhibited | 8 ± 5 |
